Measured values reported in patent US12065436B2, “Cardiac sarcomere inhibitors” (Cytokinetics, Inc., priority 2018, dated 2024).

Target: bovine cardiac myofibrils (full-length cardiac myosin ATPase in the native sarcomere) (Bos taurus (Bovine), UniProt Q9BE39)
Assay: Skinned bovine cardiac myofibril ATPase assay (PK/LDH-coupled)
Format: biochemical
Settings: Ca2+ activating to 75% of maximal rate; for CDMF75 IC15: concentration giving 15% inhibition; for IC50: read-out: CDMF75 IC50
Experimental: To evaluate the effect of compounds on the ATPase activity of full-length cardiac myosin in the context of the native sarcomere, skinned myofibril assays were performed. Bovine cardiac myofibrils were obtained by homogenizing bovine cardiac left ventricular tissue in the presence of a detergent such as triton X-100. Such treatment removes membranes and a majority of the soluble cytoplasmic proteins but leaves intact the cardiac sarcomeric acto-myosin apparatus. Myofibril preparations retain the ability to hydrolyze ATP in an Ca^2+ regulated manner. ATPase activities of such myofibril preparations in the presence and absence of compounds were assayed at Ca^2+ concentrations activating to a defined fraction of the maximal rate (i.e., 25%, 75%). Small molecule agents were assessed for their ability to inhibit the steady-state ATPase activity of bovine cardiac myofibrils using pyruvate kinase and lactate dehydrogenase (PK/LDH)-coupled enzyme system. This assay regenerates myosin-produced ADP into ATP by oxidizing NADH, producing an absorbance change at 340 nm. Prior to testing small molecule agents, the bovine cardiac myofibrils were assessed for their calcium responsiveness and the calcium concentration that achieves either a 50% (pCa50) or 75% (pCa75) activation of the myofibril system was chosen as the final condition for assessing the inhibitory activity of the small molecule agents. All enzymatic activity was measured in a buffered solution containing 12 mM PIPES (piperazine-N,N′-bis(2-ethanesulfonic acid), 2 mM magnesium chloride at pH 6.8 (PM 12 buffer). Final assay conditions were 1 mg/mL of bovine cardiac myofibrils, 4 U/mL pyruvate kinase, 6 U/mL lactate dehydrogenase, 50 μM ATP, 0.1 mg/mL BSA (bovine serum albumin), 10 ppm antifoam, 1 mM DTT, 0.5 mM NADH, 1.5 mM PEP, 0.6 mM EGTA, and an amount of CaCl2) sufficient to achieve either 50% or 75% activation of the myofibril ATPase activity.

Sequence of bovine cardiac myofibrils (full-length cardiac myosin ATPase in the native sarcomere) (Q9BE39 whole entry): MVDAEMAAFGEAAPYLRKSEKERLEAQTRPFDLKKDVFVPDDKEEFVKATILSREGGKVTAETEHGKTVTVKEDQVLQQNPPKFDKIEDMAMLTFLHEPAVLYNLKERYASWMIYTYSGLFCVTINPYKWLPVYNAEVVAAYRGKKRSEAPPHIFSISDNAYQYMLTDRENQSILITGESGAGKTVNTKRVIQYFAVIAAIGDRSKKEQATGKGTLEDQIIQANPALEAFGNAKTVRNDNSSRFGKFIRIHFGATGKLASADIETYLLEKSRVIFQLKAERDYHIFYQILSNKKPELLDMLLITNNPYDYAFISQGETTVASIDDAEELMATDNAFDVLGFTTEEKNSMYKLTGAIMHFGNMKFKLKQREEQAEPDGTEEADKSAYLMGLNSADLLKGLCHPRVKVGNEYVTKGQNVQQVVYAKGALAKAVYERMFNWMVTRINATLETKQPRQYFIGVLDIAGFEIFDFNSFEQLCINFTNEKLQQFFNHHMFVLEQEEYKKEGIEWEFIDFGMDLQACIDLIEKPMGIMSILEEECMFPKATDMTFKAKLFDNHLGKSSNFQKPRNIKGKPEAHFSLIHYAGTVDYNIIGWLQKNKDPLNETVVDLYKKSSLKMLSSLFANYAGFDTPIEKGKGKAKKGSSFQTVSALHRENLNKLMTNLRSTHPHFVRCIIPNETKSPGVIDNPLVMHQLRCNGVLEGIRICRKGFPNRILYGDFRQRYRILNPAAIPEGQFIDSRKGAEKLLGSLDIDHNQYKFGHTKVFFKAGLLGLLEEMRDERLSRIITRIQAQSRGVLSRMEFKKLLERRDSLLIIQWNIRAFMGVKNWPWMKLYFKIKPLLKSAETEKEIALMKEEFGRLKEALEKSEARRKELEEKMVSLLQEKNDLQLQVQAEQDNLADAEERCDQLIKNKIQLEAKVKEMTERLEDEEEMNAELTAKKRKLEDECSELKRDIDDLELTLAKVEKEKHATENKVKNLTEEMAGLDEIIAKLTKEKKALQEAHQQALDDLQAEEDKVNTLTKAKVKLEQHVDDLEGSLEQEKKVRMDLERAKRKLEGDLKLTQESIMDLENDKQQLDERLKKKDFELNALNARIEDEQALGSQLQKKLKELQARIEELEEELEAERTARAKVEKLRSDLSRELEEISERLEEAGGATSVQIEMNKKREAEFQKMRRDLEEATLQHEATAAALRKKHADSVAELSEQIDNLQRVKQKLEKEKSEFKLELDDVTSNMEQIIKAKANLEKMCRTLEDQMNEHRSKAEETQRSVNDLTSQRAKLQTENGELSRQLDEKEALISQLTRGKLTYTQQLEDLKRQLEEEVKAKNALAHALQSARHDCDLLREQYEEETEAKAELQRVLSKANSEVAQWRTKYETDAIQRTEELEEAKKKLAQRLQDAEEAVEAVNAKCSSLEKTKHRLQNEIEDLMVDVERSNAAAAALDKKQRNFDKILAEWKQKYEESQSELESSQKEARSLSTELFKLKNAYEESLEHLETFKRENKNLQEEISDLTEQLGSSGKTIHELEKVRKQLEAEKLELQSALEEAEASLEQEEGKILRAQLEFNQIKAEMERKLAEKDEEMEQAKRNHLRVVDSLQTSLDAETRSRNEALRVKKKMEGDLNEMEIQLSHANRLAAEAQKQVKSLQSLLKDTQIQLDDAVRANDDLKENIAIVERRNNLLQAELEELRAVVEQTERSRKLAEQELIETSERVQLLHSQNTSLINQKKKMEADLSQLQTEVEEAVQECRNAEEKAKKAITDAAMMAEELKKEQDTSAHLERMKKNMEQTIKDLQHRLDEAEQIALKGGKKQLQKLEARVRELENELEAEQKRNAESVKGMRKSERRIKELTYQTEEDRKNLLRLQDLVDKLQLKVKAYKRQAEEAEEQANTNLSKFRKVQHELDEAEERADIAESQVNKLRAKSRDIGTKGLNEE
Sequence of bovine cardiac myofibrils (full-length cardiac myosin ATPase in the native sarcomere) (P85100 whole entry partner): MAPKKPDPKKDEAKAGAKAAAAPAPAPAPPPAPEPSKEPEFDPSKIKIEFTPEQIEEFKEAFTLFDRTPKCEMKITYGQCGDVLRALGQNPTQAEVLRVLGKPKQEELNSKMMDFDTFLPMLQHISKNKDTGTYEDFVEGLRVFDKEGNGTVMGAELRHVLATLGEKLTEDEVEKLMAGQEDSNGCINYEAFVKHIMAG
Sequence of bovine cardiac myofibrils (full-length cardiac myosin ATPase in the native sarcomere) (Q3SZE5 whole entry partner): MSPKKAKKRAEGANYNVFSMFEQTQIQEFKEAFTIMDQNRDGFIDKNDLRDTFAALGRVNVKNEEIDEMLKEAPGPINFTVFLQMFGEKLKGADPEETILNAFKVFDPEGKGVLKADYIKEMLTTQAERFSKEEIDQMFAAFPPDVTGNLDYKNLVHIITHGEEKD

| SMILES | CDMF75 IC15 | IC50 |
| --- | --- | --- |
| CCc1nc(-c2ccc3c(c2)CCCC3NC(=O)c2ccnn2C)no1 (stereo not shown) [Compound 525, N-(6-(5-ethyl-1,2,4-oxadiazol-3-yl)-1,2,3,4-tetrahydronaphthalen-1-yl)-1-methyl-1H-pyrazole-5-carboxamide] | 700 nM | 2500 nM |
| CCc1nc(-c2ccc3c(c2)CC[C@H]3NC(C)=O)no1 [Compound 405, (R)-N-(5-(5-ethyl-1,2,4-oxadiazol-3-yl)-2,3-dihydro-1H-inden-1-yl)acetamide] | 600 nM | 2300 nM |
| Cc1n[nH]cc1C(=O)N[C@@H]1CCc2cc(-c3noc(C(C)C)n3)ccc21 [Compound 396, (R)-N-(5-(5-isopropyl-1,2,4-oxadiazol-3-yl)-2,3-dihydro-1H-inden-1-yl)-3-methyl-1H-pyrazole-4-carboxamide] | 400 nM | 1600 nM |
| Cc1nc(-c2ccc3c(c2)CC[C@H]3NC(=O)c2ocnc2C)no1 [Compound 449, (R)-4-methyl-N-(5-(5-methyl-1,2,4-oxadiazol-3-yl)-2,3-dihydro-1H-inden-1-yl)oxazole-5-carboxamide] | 500 nM | 1500 nM |
| [2H]C([2H])([2H])c1nc(-c2ccc3c(c2)CC[C@H]3NC(=O)c2c[nH]nc2C)no1 [Compound 401, (R)-3-methyl-N-(5-(5-(methyl-d3)-1,2,4-oxadiazol-3-yl)-2,3-dihydro-1H-inden-1-yl)-1H-pyrazole-4-carboxamide] | 900 nM | 3000 nM |
| O=C(N[C@@H]1CCc2cc(-c3noc(C(F)F)n3)ccc21)C1CCOC1 (stereo partly drawn) [Compound 294, N-((R)-5-(5-(difluoromethyl)-1,2,4-oxadiazol-3-yl)-2,3-dihydro-1H-inden-1-yl)tetrahydrofuran-3-carboxamide] | 15600 nM | > 39200 nM |
| CCc1nc(-c2ccc3c(c2)CC[C@H]3NC(=O)c2nnc(C)o2)no1 [Compound 618, (R)-N-(5-(5-ethyl-1,2,4-oxadiazol-3-yl)-2,3-dihydro-1H-inden-1-yl)-5-methyl-1,3,4-oxadiazole-2-carboxamide] | 300 nM | 1100 nM |
| Cc1c(C(=O)N[C@@H]2CCc3cc(-c4noc(C5CC5)n4)ccc32)cnn1C [Compound 153, (R)-N-(5-(5-cyclopropyl-1,2,4-oxadiazol-3-yl)-2,3-dihydro-1H-inden-1-yl)-1,5-dimethyl-1H-pyrazole-4-carboxamide] | 500 nM | 1900 nM |
| Cc1nn(C)cc1C(=O)NC1CCc2cc(-c3noc([C@H](C)O)n3)ccc21 (stereo partly drawn) [Compound 80, N-(5-(5-((S)-1-hydroxyethyl)-1,2,4-oxadiazol-3-yl)-2,3-dihydro-1H-inden-1-yl)-1,3-dimethyl-1H-pyrazole-4-carboxamide] | 27500 nM | > 39200 nM |
| COC(=O)N[C@@H]1COc2cc(-c3noc(C4CC4)n3)ccc21 [Compound 348, methyl (S)-(6-(5-cyclopropyl-1,2,4-oxadiazol-3-yl)-2,3-dihydrobenzofuran-3-yl)carbamate] | 500 nM | 1800 nM |
| C=Cc1cc(C(=O)N[C@@H]2CCc3cc(-c4noc(CC)n4)ccc32)ccn1 [Compound 655, (R)-N-(5-(5-ethyl-1,2,4-oxadiazol-3-yl)-2,3-dihydro-1H-inden-1-yl)-2-vinylisonicotinamide] | 600 nM | 1900 nM |
| Cc1cc(C(=O)N[C@@H]2CCc3cc(-c4nc(C(F)F)no4)ccc32)ccn1 [Compound 133, (R)-N-(5-(3-(difluoromethyl)-1,2,4-oxadiazol-5-yl)-2,3-dihydro-1H-inden-1-yl)-2-methylisonicotinamide] | 1500 nM | 5700 nM |
| CCC(=O)N[C@@H]1CCc2cc(-c3noc(CC)n3)ccc21 [Compound 317, (R)-N-(5-(5-ethyl-1,2,4-oxadiazol-3-yl)-2,3-dihydro-1H-inden-1-yl)propionamide] | 2700 nM | 12100 nM |
| Cc1ncc(C(=O)N[C@@H]2CCc3cc(-c4noc(C5CCC5)n4)ccc32)o1 [Compound 410, (R)-N-(5-(5-cyclobutyl-1,2,4-oxadiazol-3-yl)-2,3-dihydro-1H-inden-1-yl)-2-methyloxazole-5-carboxamide] | 900 nM | 3500 nM |
| Cn1nccc1C(=O)N[C@@H]1CCc2cc(-c3ccccn3)ccc21 [Compound 367, (R)-1-methyl-N-(5-(pyridin-2-yl)-2,3-dihydro-1H-inden-1-yl)-1H-pyrazole-5-carboxamide] | 13900 nM | > 39200 nM |
| O=C(N[C@@H]1CCc2cc(-c3noc(C(F)F)n3)ccc21)C1CCC1 [Compound 309, (R)-N-(5-(5-(difluoromethyl)-1,2,4-oxadiazol-3-yl)-2,3-dihydro-1H-inden-1-yl)cyclobutanecarboxamide] | 39200 nM | > 39200 nM |
| O=C(N[C@@H]1CCc2cc(-c3noc(C(F)F)n3)ccc21)OC1CNC1 [Compound 291, azetidin-3-yl (R)-(5-(5-(difluoromethyl)-1,2,4-oxadiazol-3-yl)-2,3-dihydro-1H-inden-1-yl)carbamate] | 17300 nM | > 39200 nM |
| Cc1noc(-c2ccc3c(c2)CC[C@H]3NC(=O)c2cnn(C)c2C)n1 [Compound 264, (R)-1,5-dimethyl-N-(5-(3-methyl-1,2,4-oxadiazol-5-yl)-2,3-dihydro-1H-inden-1-yl)-1H-pyrazole-4-carboxamide] | 1800 nM | 6600 nM |
| COC(=O)c1nc(-c2ccc3c(c2)CCC3NC(=O)c2cn(C)nc2C)no1 (stereo not shown) [Compound 78, methyl 3-(1-(1,3-dimethyl-1H-pyrazole-4-carboxamido)-2,3-dihydro-1H-inden-5-yl)-1,2,4-oxadiazole-5-carboxylate] | 2600 nM | 13600 nM |
| CCc1nc(-c2ccc3c(c2)CC[C@H]3NC(=O)c2ccc(=O)[nH]c2)no1 [Compound 603, (R)-N-(5-(5-ethyl-1,2,4-oxadiazol-3-yl)-2,3-dihydro-1H-inden-1-yl)-6-oxo-1,6-dihydropyridine-3-carboxamide] | 300 nM | 1000 nM |
| Cc1c(C(=O)N[C@@H]2CCc3cc(-c4noc(C(F)F)n4)ccc32)cnn1C [Compound 91, (R)-N-(5-(5-(difluoromethyl)-1,2,4-oxadiazol-3-yl)-2,3-dihydro-1H-inden-1-yl)-1,5-dimethyl-1H-pyrazole-4-carboxamide] | 500 nM | 1800 nM |
| Cc1ncoc1C(=O)NC1CCc2cc(-c3noc(C(F)F)n3)ccc21 (stereo not shown) [Compound 12, N-(5-(5-(difluoromethyl)-1,2,4-oxadiazol-3-yl)-2,3-dihydro-1H-inden-1-yl)-4-methyloxazole-5-carboxamide] | 600 nM | 2000 nM |
| CCc1nc(-c2ccc3c(c2)CC[C@H]3NC(=O)c2nonc2C)no1 [Compound 633, (R)-N-(5-(5-ethyl-1,2,4-oxadiazol-3-yl)-2,3-dihydro-1H-inden-1-yl)-4-methyl-1,2,5-oxadiazole-3-carboxamide] | 200 nM | 800 nM |
| CC(=O)N[C@@H]1COc2cc(-c3noc(C(F)F)n3)ccc21 [Compound 444, (S)-N-(6-(5-(difluoromethyl)-1,2,4-oxadiazol-3-yl)-2,3-dihydrobenzofuran-3-yl)acetamide] | 1600 nM | 7900 nM |
| COCCn1cc(C(=O)N[C@@H]2CCc3cc(-c4noc(C)n4)ccc32)cn1 [Compound 509, (R)-1-(2-methoxyethyl)-N-(5-(5-methyl-1,2,4-oxadiazol-3-yl)-2,3-dihydro-1H-inden-1-yl)-1H-pyrazole-4-carboxamide] | 3200 nM | 12800 nM |
| O=C(NC1CC1)N[C@@H]1CCc2cc(-c3noc(C(F)F)n3)ccc21 [Compound 289, (R)-1-cyclopropyl-3-(5-(5-(difluoromethyl)-1,2,4-oxadiazol-3-yl)-2,3-dihydro-1H-inden-1-yl)urea] | 39200 nM | > 39200 nM |
| Cc1nc(-c2ccc3c(c2)CCC3NC(=O)Nc2cccnc2)no1 (stereo not shown) [Compound 62, 1-(5-(5-methyl-1,2,4-oxadiazol-3-yl)-2,3-dihydro-1H-inden-1-yl)-3-(pyridin-3-yl)urea] | 1500 nM | 8700 nM |
| Cc1cc(C(=O)N[C@@H]2CCc3cc(-c4cnc(C)o4)ccc32)ccn1 [Compound 135, (R)-2-methyl-N-(5-(2-methyloxazol-5-yl)-2,3-dihydro-1H-inden-1-yl)isonicotinamide] | 39200 nM | > 39200 nM |
| CCc1nc(-c2ccc3c(c2)CC[C@H]3NC(=O)c2cnn(C3CNC3)c2)no1 [Compound 484, (R)-1-(azetidin-3-yl)-N-(5-(5-ethyl-1,2,4-oxadiazol-3-yl)-2,3-dihydro-1H-inden-1-yl)-1H-pyrazole-4-carboxamide] | 39200 nM | 39200 nM |
